# Assay results: ChEMBL document CHEMBL4483862, “Open-source discovery of chemical leads for next-generation chemoprotective antimalarials” (2018)
# System: Plasmodium berghei
# Assay: Luciferase/luciferin-expressing antifolate-resistant parasites were used to infect a culture of HepG2 cells that were pre-incubated with compounds. Infected hepatocytes emit light due to the luciferase reaction. Assay results are presented as the percent inhibition of light emission compared to control. […]
# Format: functional
# Conditions: sporozoite; for IC90: read-out: LUCIFERASE INFECTION ASSAY - IC90
# [1] = read-out: LUCIFERASE INFECTION ASSAY - IC50
Structure (SMILES),IC90,further results
COc1ccc(C2=NN=C/C2=N\Nc2ccccc2)cc1,3.89 µM,"IC50 (HEPG2TOX_HILL_SLOPE 2.19, HEPG2TOX_R_SQUARED 0.971, PBLUC_HILL_SLOPE 2.49, PBLUC_R_SQUARED 0.567, read-out: LUCIFERASE INFECTION ASSAY - IC50): 1.61 µM"
Cc1[nH]c2ccccc2c1C(c1ccccc1)N1CCN(C)CC1 (stereo not given),> 10 µM,IC50 [1]: > 10 µM
Cc1cc(NCc2ccccn2)n2ncc(-c3ccccc3Cl)c2n1,> 9.43 µM,"IC50 (PBLUC_HILL_SLOPE 4.03, PBLUC_R_SQUARED 0.181, read-out: LUCIFERASE INFECTION ASSAY - IC50): 5.66 µM"
O=C(NNC(=O)c1cc2c(s1)CCCCC2)c1ccccn1,8.35 µM,"IC50 (PBLUC_HILL_SLOPE 4.79, PBLUC_R_SQUARED 0.138, read-out: LUCIFERASE INFECTION ASSAY - IC50): 5.28 µM"
CCOc1cc(/C=C2\CN(CC)C/C(=C\c3ccc(O)c(OCC)c3)C2=O)ccc1O,4.59 µM,"IC50 (HEPG2TOX_HILL_SLOPE 12.4, HEPG2TOX_R_SQUARED 0.875, PBLUC_HILL_SLOPE 8.96, PBLUC_R_SQUARED 0.775, read-out: LUCIFERASE INFECTION ASSAY - IC50): 3.59 µM"
CC(Sc1nc2scc(-c3ccccc3)c2c(=O)n1C)c1ccccc1 (stereo not given),> 10 µM,"IC50 (HEPG2TOX_HILL_SLOPE 0.394, HEPG2TOX_R_SQUARED 0.0907, read-out: LUCIFERASE INFECTION ASSAY - IC50): > 10 µM"
CCOC(=O)Cc1ccc(NC(=O)c2ccc(C(C)(C)C)cc2)cc1,2.02 µM,"IC50 (HEPG2TOX_HILL_SLOPE 1.28, HEPG2TOX_R_SQUARED 0.763, PBLUC_HILL_SLOPE 1.21, PBLUC_R_SQUARED 0.784, read-out: LUCIFERASE INFECTION ASSAY - IC50): 0.329 µM"
O=C(/C=c1/[nH]c(=O)/c(=C/c2ccc(-c3ccccc3F)s2)s1)c1ccncc1,> 10 µM,"IC50 (FFLUC_HILL_SLOPE 1.61, FFLUC_R_SQUARED 0.374, read-out: LUCIFERASE INFECTION ASSAY - IC50): > 10 µM"
CCOc1cccc(C(=O)Nc2c(C)cc(Br)cc2C)c1,> 9.48 µM,IC50 [1]: > 9.48 µM
O=c1cc(C(F)(F)F)[nH]c2cc(C(F)(F)F)ccc12,4.25 µM,"IC50 (PBLUC_HILL_SLOPE 15.4, PBLUC_R_SQUARED 0.673, read-out: LUCIFERASE INFECTION ASSAY - IC50): 3.68 µM"
Cc1c(C)n(CCCO)c2ncn3nc(-c4ccc(F)cc4)nc3c12,5.99 µM,"IC50 (FFLUC_HILL_SLOPE 1.57, FFLUC_R_SQUARED 0.582, PBLUC_HILL_SLOPE 0.753, PBLUC_R_SQUARED 0.936, read-out: LUCIFERASE INFECTION ASSAY - IC50): 0.324 µM"
O=C(Nc1ccc(-n2nc(C(F)(F)F)cc2C(F)(F)F)cc1)Nc1cc(Cl)cc(Cl)c1,2.08 µM,IC50 [1]: 1.83 µM
N#C/C(=C\Nc1ccc(OC(F)(F)F)cc1)S(=O)(=O)c1ccc(Cl)cc1,> 8.19 µM,IC50 [1]: > 8.19 µM
CC(=O)c1cccc(-c2cnc3ccc(Cc4ccc(F)cc4)nn23)c1,5.55 µM,"IC50 (HEPG2TOX_HILL_SLOPE 0.753, HEPG2TOX_R_SQUARED 0.0911, PBLUC_HILL_SLOPE 6.85, PBLUC_R_SQUARED 0.304, read-out: LUCIFERASE INFECTION ASSAY - IC50): 4.02 µM"
Cc1nnc(Sc2nc(CN3CCCCC3)nc3sc4c(c23)CCC4)s1,> 10 µM,"IC50 (HEPG2TOX_HILL_SLOPE 9.43, HEPG2TOX_R_SQUARED 0.839, read-out: LUCIFERASE INFECTION ASSAY - IC50): > 10 µM"
CN(C)S(=O)(=O)c1ccc(N2CCCC2)c(C(=O)Nc2nc(-c3ccccn3)cs2)c1,9.7 µM,"IC50 (HEPG2TOX_HILL_SLOPE 8.6, HEPG2TOX_R_SQUARED 0.463, PBLUC_HILL_SLOPE 5.89, PBLUC_R_SQUARED 0.378, read-out: LUCIFERASE INFECTION ASSAY - IC50): 6.68 µM"
O=C(c1cccc(F)c1)c1cnc(Nc2cccc(Br)c2)[nH]1,> 9.16 µM,"IC50 (PBLUC_HILL_SLOPE 15, PBLUC_R_SQUARED 0.325, read-out: LUCIFERASE INFECTION ASSAY - IC50): 8.58 µM"
CC(C)c1cccc(C(C)C)c1NC(=O)COc1ccc(CCO)cc1-n1nc2ccccc2n1,6.85 µM,"IC50 (FFLUC_HILL_SLOPE 16.3, FFLUC_R_SQUARED 0.284, PBLUC_HILL_SLOPE 3.54, PBLUC_R_SQUARED 0.756, read-out: LUCIFERASE INFECTION ASSAY - IC50): 3.68 µM"
O=C(Nc1cccc(C(F)(F)F)c1)Nc1ccc2c(c1)no[n+]2[O-],1.2 µM,"IC50 (HEPG2TOX_HILL_SLOPE 9.23, HEPG2TOX_R_SQUARED 0.804, PBLUC_HILL_SLOPE 15.5, PBLUC_R_SQUARED 0.688, read-out: LUCIFERASE INFECTION ASSAY - IC50): 1.04 µM"
COc1ccc(CCn2c(C)cc(C(=O)COC(=O)c3[nH]nc4ccccc34)c2C)cc1,> 10 µM,IC50 [1]: > 10 µM

Structure (SMILES),IC90,further results
O=C1CN(C(=O)COc2ccc(F)cc2Br)CCN1,> 10 µM,IC50 [1]: > 10 µM
COc1ccc(OCc2nnc(SCC(=O)NCC3CCCO3)n2N)cc1 (stereo not given),> 10 µM,IC50 [1]: > 10 µM
N#Cc1ccc(-c2cc(C3(CNc4cccc(OC(F)(F)F)c4)CC3)ccn2)cc1,> 10 µM,"IC50 (PBLUC_HILL_SLOPE 1.65, PBLUC_R_SQUARED 0.178, read-out: LUCIFERASE INFECTION ASSAY - IC50): > 10 µM"
N#Cc1c(Cl)cccc1N1CCOCC1,> 14.8 µM,"IC50 (FFLUC_HILL_SLOPE 1.9, FFLUC_R_SQUARED 0.649, HEPG2TOX_HILL_SLOPE 2.33, HEPG2TOX_R_SQUARED 0.905, PBLUC_HILL_SLOPE 3.58, PBLUC_R_SQUARED 0.165, read-out: LUCIFERASE INFECTION ASSAY - IC50): 14.1 µM"
Cc1cccc(C(=O)Nc2sc3c(c2C(=O)N2CCCCC2)CCCCC3)c1,6.3 µM,IC50 [1]: 0.805 µM
CC(=O)c1c(C)[nH]c(C(=O)Nc2nc3ccccc3[nH]2)c1C,> 10 µM,"IC50 (FFLUC_HILL_SLOPE 0.837, FFLUC_R_SQUARED 0.9, PBLUC_HILL_SLOPE 0.352, PBLUC_R_SQUARED 0.709, read-out: LUCIFERASE INFECTION ASSAY - IC50): 0.0695 µM"
Cc1ccc(CSc2nccc(-c3c(C)nc4ccccn34)n2)cc1,> 9.53 µM,"IC50 (HEPG2TOX_HILL_SLOPE 2.56, HEPG2TOX_R_SQUARED 0.969, PBLUC_HILL_SLOPE 4.1, PBLUC_R_SQUARED 0.204, read-out: LUCIFERASE INFECTION ASSAY - IC50): 6.17 µM"
COc1ccc(OCCN(C)C(=O)c2ccc(-n3cccn3)cc2)cc1,> 10 µM,IC50 [1]: > 10 µM
CC(C)=CC(=O)Nc1scc(-c2ccccc2)c1C(=O)OCC(=O)Nc1ccc([N+](=O)[O-])cc1Cl,> 10 µM,"IC50 (HEPG2TOX_HILL_SLOPE 0.0482, HEPG2TOX_R_SQUARED 0.161, PBLUC_HILL_SLOPE 2.32, PBLUC_R_SQUARED 0.465, read-out: LUCIFERASE INFECTION ASSAY - IC50): 5.35 µM"
COCCNc1ccc2ncc(-c3ccc(Cl)cc3)n2n1,5.92 µM,"IC50 (HEPG2TOX_HILL_SLOPE 7.9, HEPG2TOX_R_SQUARED 0.252, PBLUC_HILL_SLOPE 6.86, PBLUC_R_SQUARED 0.283, read-out: LUCIFERASE INFECTION ASSAY - IC50): 4.3 µM"
N#Cc1ccc(-c2cnc3cnc(-c4cccc(Cl)c4)cn23)cc1,> 9.98 µM,"IC50 (PBLUC_HILL_SLOPE 4, PBLUC_R_SQUARED 0.258, read-out: LUCIFERASE INFECTION ASSAY - IC50): 8.15 µM"
Cc1ccc2nc(NC(=O)c3cc(F)ccc3F)c(C(=O)NCC(C)C)n2c1,3.13 µM,"IC50 (HEPG2TOX_HILL_SLOPE 8.58, HEPG2TOX_R_SQUARED 0.935, PBLUC_HILL_SLOPE 15.1, PBLUC_R_SQUARED 0.738, read-out: LUCIFERASE INFECTION ASSAY - IC50): 2.71 µM"
CC1Cc2ccccc2N1C(=O)c1cn(-c2ccccc2)nc1-c1ccc(F)cc1 (stereo not given),9.94 µM,"IC50 (HEPG2TOX_HILL_SLOPE 8.75, HEPG2TOX_R_SQUARED 0.907, PBLUC_HILL_SLOPE 3.93, PBLUC_R_SQUARED 0.478, read-out: LUCIFERASE INFECTION ASSAY - IC50): 5.68 µM"
Cc1cc(C(=O)NCCNC(=O)c2cccn2C)c2nc3n(c2n1)CCCCC3,> 10 µM,IC50 [1]: > 10 µM
CNC(=O)NC(=O)COc1ccccc1C#N,> 10 µM,"IC50 (FFLUC_HILL_SLOPE 16.2, FFLUC_R_SQUARED 0.422, read-out: LUCIFERASE INFECTION ASSAY - IC50): > 10 µM"
Nc1ccc(-c2cnc3ccc(Cc4ccc(F)cc4)nn23)cn1,0.455 µM,"IC50 (HEPG2TOX_HILL_SLOPE 2.46, HEPG2TOX_R_SQUARED 0.531, PBLUC_HILL_SLOPE 14.2, PBLUC_R_SQUARED 0.359, read-out: LUCIFERASE INFECTION ASSAY - IC50): 0.39 µM"
O=C(N/N=C/c1c(-c2ccccc2)nc2sc3c(n12)CCCC3)c1ccc(Br)cc1,8.36 µM,"IC50 (FFLUC_HILL_SLOPE 0.19, FFLUC_R_SQUARED 0.758, PBLUC_HILL_SLOPE 1.28, PBLUC_R_SQUARED 0.573, read-out: LUCIFERASE INFECTION ASSAY - IC50): 1.51 µM"
CNc1snc(C)c1C(=O)NCC(C(C)C)N1CCc2ccccc2C1 (stereo not given),> 10 µM,IC50 [1]: > 10 µM
CN(C)CCNC(=O)c1ccc(-c2cn3c(-c4cccs4)cnc3cn2)cc1,> 8.43 µM,"IC50 (HEPG2TOX_HILL_SLOPE 7.97, HEPG2TOX_R_SQUARED 0.151, read-out: LUCIFERASE INFECTION ASSAY - IC50): > 8.43 µM"
Cc1cccc(OCC(=O)Nc2nc(C)c(Cc3ccc4c(c3)OCO4)s2)c1,> 10 µM,"IC50 (PBLUC_HILL_SLOPE 0.768, PBLUC_R_SQUARED 0.0907, read-out: LUCIFERASE INFECTION ASSAY - IC50): > 10 µM"
